Test results taken from patent US20120059005A1, “COMBINATION OF (A) A PHOSPHOINOSITIDE 3-KINASE INHIBITOR AND (B) AN ANTIDIABETIC COMPOUND FOR USE IN THE TREATMENT OF PROLIFERATIVE DISEASES” (NOVARTIS AG, priority 2009, published 2012).
Read-outs that look alike come from different tables or passages of the source.

Columns and labels:
[1] = Method: 0.2 mL of A549 cell suspension (1×10^7 cells) is injected subcutaneously in the right flank of 9-week old female flu/flu (nude) mice (Harlan Laboratories, Indianapolis, Ind.) having a body weight (BW) range of 19.9-27.3 g on Day 1 of the study, Tumors are callipered in two dimensions to monitor their growth as their mean volume approached 150-220 mm^3, Twenty-two days after implantation, the mice are sorted into 11 groups of eight or nine mice having individual tumor sizes of 108-221 mm^3. Tumor volume in mm^3 is determined using the formula [(width)^2×(length)][…], where width width of the tumor in mm and length=length of the tumor in mm. Tumor weight can be estimated with the assumption that 1 mg is equivalent to 1 mm^3 of tumor volume.
(§1) The 11 groups of nude mice are treated as follows. One group of nine mice serves as Controls (C or Control) for all analyses and is administered intraperitoneally (i,p,) 50 mM sodium acetate at pH 4 (Vehicle 1) and then administered by oral gavage (p.o.) a composition comprising 10% N-methylpyrrolidone: 90% polyethylene glycol 300 (PEG300) (Vehicle 2). […] Metformin is dissolved in 50 mM sodium acetate at pH 4 for dosing,
(§2) Compound A and Compound C are stored at −20° C. protected from light. Stock solutions (10X) in 100% N-methylpyrrolidone (NMP) are prepared every five days, aliquotted, and stored in the dark at room temperature. On each treatment day, stock solution aliquots are diluted with polyethylene glycol (PEG300) to provide the formulated drug (Compound A or Compound C) in 10% NMP: 90% PEG300. Dosing solutions are protected from light, and the formulated drug is administered within 1 hour after preparation.
For combination therapies, Compound A or Compound C are administered by oral gavage (p.o.) within 30 minutes after the intraperitoneal (i.p.) administration of metformin , except on Day 20 when Compound A or Compound C is given immediately after metformin.
(§3) Paclitaxel (Natural Pharmaceuticals, Inc., Beverly, Mass., USA) is administered by bolus tail-vein injections (i v) once daily on alternate days for five doses. Paclitaxel is dissolved in 50% ethanol and 50% Cremophor® EL to prepare a 10X stock solution stored at room temperature. On each day of dosing, an aliquot of the paclitaxel stock solution is diluted with 5% dextrose in water to yield a dosing solution containing 5% ethanol and 5% Cremophor®EL.
In all groups, the dosing volume of 10 mL/kg (0.2 mL/ 20 g mouse) is scaled to the weight of each animal as determined on the day of dosing, except on weekends when the previous BW is carried forward.

[2] = test system: H460 non-small cell lung tumors; experiment: H460 xenograft 12-day tumor growth inhibition assay; type: in vivo, nude mice; conditions: for Mean Tumor Vol. Change / Regression / T/C: Day 12
Method: H460 human non-small cell lung cancer (NSCLC) cells are treated with, different doses of 2-Methyl-2-[4-(3-methyl-2-oxo-8-quinolln-3-yl-2,3-dihydro-imidazo[4, 5-c]quinolin-1-yl)-phenyl]-propionitrile monotosylate salt (also known as COMPOUND A) or 5,-(2,6-di-rnorpholin-4-yl-pyrimidin-4-yl)-4-trifluoromethyl-pyridin-2-ylamine hydrochloride salt (also known as COMPOUND C), a single dose of metformin or both agents in combination, The H460 human NSCLC cells (NCl-H460. ATCC-HTB-177, available from American Type Culture Collection, FRockville, Md. US) are derived from the pleural fluid of a patient with large cell cancer of the lung.
H460 tumor cells are grown in RPMI 1640 medium containing 100 units/mL penicillin G sodium, 100 μg/mL streptomycin sulfate, and 25 μg/mL gentamicin. The medium is supplemented with 10% fetal bovine serum and 2 mM glutamine. The cells are cultured in tissue culture flasks in a humidified incubator at 37° C., in an atmosphere of 5% CO2 and 95% air. The cells are harvested for injection into 9-week old female nu/nu (nude) mice (Harlan Laboratories, Indianapolis, Ind.) by detaching the monolayers with 2× trypsin and resuspending at 5×10^7 cells/mL in phosphate-buffered saline.
(§4) 0.2 mL of H460 tumor cell suspension (1×10^7 cells) is injected subcutaneously in the right flank of 9-week old female nu/nu (nude) mice (Harlan Laboratories, Indianapolis, Ind.) having a body weight (BW) range of 18.1-26.9 g on Day 1 of the study. Tumors are monitored twice weekly and then daily as their mean volume approaches 100-150 mm^3. Ten days after implantation, the mice are sorted into 11 groups of eight mice having individual tumor sizes of 75-196 mm^3 and a group mean tumor size of 119-122 mm^3. Tumor volume in mm^3 is determined using the formula [(width)^2×(length)]/2, where width width of the tumor in mm and length length of the tumor in mm. Tumor weight can be estimated with the assumption that 1 mg is equivalent to 1 mm^3 of tumor volume.
as §1, with “eight” for “nine”, “(i.p.)” for “(i,p,)”, “N-methylpyrrolidone” for “N-methylpyrrolidone:”, “dosing.” for “dosing,”
as §2, with “A is stored at −20° C.” for “A and”, “C is” for “C are”, “solutions (10×)” for “solutions (10X)”, “100% N-rnethylpyrrolidone” for “100% N-methylpyrrolidone”
(§5) For combination therapies, Compound A or Compound C are administered by oral gavage (p.o.) within 30 minutes after the intraperitoneal (i.p.) administration of metformin, except on Day 20 when Compound A or Compound C is given immediately after metformin.
as §3, with “(i.v.)” for “(i v)”, “Crernophor®” for “Cremophor®”, “10×” for “10X”, “Cremophor® EL.” for “Cremophor®EL.”
(§6) In all groups, the dosing volume of 10 mL/kg (0.2 mL/20 g mouse) is scaled to the weight of each animal as determined on the day of dosing, except on weekends when the previous BW is carried fontvard.

[3] = remark: listed apart in the source
Method: as §4
as §1, with “eight” for “nine”, “(i.p.)” for “(i,p,)”, “N-methylpyrrolidone” for “N-methylpyrrolidone:”, “dosing.” for “dosing,”
as §2, with “A is stored at −20° C.” for “A and”, “C is” for “C are”, “solutions (10×)” for “solutions (10X)”, “100% N-rnethylpyrrolidone” for “100% N-methylpyrrolidone”
as §5
as §3, with “(i.v.)” for “(i v)”, “Crernophor®” for “Cremophor®”, “10×” for “10X”, “Cremophor® EL.” for “Cremophor®EL.”
as §6

[4] = Metformin 192.3 mg/kg i.p., 1x daily
[5] = Paclitaxel 30 mg/kg i.v., 1x on alternate days for 5 doses
[6] = Compound C 32.7 mg/kg p.o., 1x daily
[7] = Compound C 54.4 mg/kg p.o., 1x daily until day 10 (stopped due to toxicity)
[8] = female, nu/nu (nude), mouse, in vivo, po, 41.1 mg/kg
[9] = female, nu/nu (nude), mouse, in vivo, po, 68.5 mg/kg
[10] = Compound A 41.1 mg/kg p.o., 1x daily
[11] = Compound A 68.5 mg/kg p.o., 1x daily

CN(C)C(=N)N=C(N)N [Metformin, dimethyldiguanide, reference compound]
Dead/Total ([1]; female, nu/nu (nude), mouse, in vivo): 1/9 | Mean Tumor Vol. Change [2, 4]: 1516 mm^3 | Regression [2, 4]: None | T/C [2, 4]: 101% (ns, | enhancement of efficacy or tolerability in combination with COMPOUND C ([2]; metformin in combination with COMPOUND C, overall conclusion): does not appear to enhance efficacy or tolerability | impact on tumor growth in the 12-day tumor growth inhibition assay ([2]; metformin monotherapy at 192.3 mg/kg): did not appear to impact tumor growth | Dead/Total [3, 4]: 0/8

CC(=O)O[C@H]1C(=O)[C@@]2(C)[C@H]([C@H](OC(=O)c3ccccc3)[C@]3(O)C[C@H](OC(=O)[C@H](O)[C@@H](NC(=O)c4ccccc4)c4ccccc4)C(C)=C1C3(C)C)[C@]1(OC(C)=O)CO[C@@H]1C[C@@H]2O [Paclitaxel, reference compound]
Dead/Total [1, 5]: 0/8 | Mean Tumor Vol. Change [2, 5]: 227 mm^3 | Regression [2, 5]: None | T/C [2, 5]: 15% | Dead/Total [3, 5]: 0/8

Nc1cc(C(F)(F)F)c(-c2cc(N3CCOCC3)nc(N3CCOCC3)n2)cn1 [Compound C, 5-(2,6-di-morpholin-4-yl-pyrimidin-4-yl)-4-trifluoromethyl-pyridin-2-ylamine]
Mean Tumor Vol. Change [2, 6]: 880 mm^3 | Regression [2, 6]: None | T/C [2, 6]: 59% (ns, | Mean Tumor Vol. Change [2, 7]: 110 mm^3 | Regression [2, 7]: None | T/C ([2]; Compound C 54.4 mg/kg p.o., 1x daily until day 10 (stopped due to toxicity), not evaluable (ne)): 7% (ne,

Cn1c(=O)n(-c2ccc(C(C)(C)C#N)cc2)c2c3cc(-c4cnc5ccccc5c4)ccc3ncc21 [Compound A, 2-Methyl-2-[4-(3-methyl-2-oxo-8-quinolin-3-yl-2,3-dihydro-imidazo[4,5-c]quinolin-1-yl)-phenyl]-propionitrile]
Dead/Total [1, 8]: 0/8 | Dead/Total [1, 9]: 0/9 | Mean Body Weight Change ([1]; mouse, in vivo, po, 68.5 mg/kg): −0.8%, Day 4 | Mean Tumor Vol. Change [2, 10]: 809 mm^3 | Regression [2, 10]: None | T/C [2, 10]: 54% (ns, | Mean Tumor Vol. Change [2, 11]: 448 mm^3 | Regression [2, 11]: None | T/C [2, 11]: 30% (ns, | Dead/Total [3, 8]: 0/8 | Dead/Total [3, 9]: 0/8
